Test [1] concerns the target Full-length PRMT5 enzyme co-expressed with His6-MEP50 (Homo sapiens (Human), UniProt O14744). The test can be described thus: PRMT5 Biochemical Assay. The settings on record: Transcreener EPIGEN methyltransferase assay, histone H4 derived peptide substrate, 4 hours at 37 degree Celsius. As to the method:
Compounds of the invention may be tested for in vitro activity in the following assay:
A histone H4 derived peptide is used as substrate (amino acid sequence: […]NH2). Full-length PRMT5 enzyme (NCBI Reference sequence NP_006100.2) was co-expressed with His6-MEP50 in insect cells and purified via Nickel immobilized metal affinity and gel filtration chromatography (“the enzyme”).
The 6 μL reactions are run in Greiner brand black 384-well low volume assay plates. All reactions contained assay buffer (phosphate buffered saline, 0.01% (v/v) Tween-20, 0.01% (w/v) albumin from chicken egg white, 1 mM Dithiothreitol, 1 μM peptide substrate, 1 μM S-Adenosyl methionine, and 15 ng/reaction enzyme, with the enzyme being omitted from negative control reactions. Compounds were added in a volume of 100 nL from dilution series prepared in DMSO, positive and negative control reactions receiving the same volume DMSO without compound. The plates were sealed with adhesive seals and incubated for 4 hours at 37 degree Celsius. Reaction progress was measured using the Transcreener™ EPIGEN methyltransferase assay (BellBrook Labs, Madison, Wis.) as recommended by the manufacturer. To each reaction 2 μL detection mix were added, containing coupling enzymes, fluorescence polarisation tracer, and AMP antibody. Plates were incubated for 90 minutes before being read on a PerkinElmer EnVision™ plate reader in fluorescence polarisation mode. IC50 values were obtained from the raw readings by calculating percent inhibition (% I) for each reaction relative to controls on the same plate (% I=(I−CN)/(CP−CN) where CN/CP are the averages of the negative/positive reactions, respectively), then fitting the % I data vs. compound concentration [I] to % I=(A+((B−A)/(1+((C/[I]^D)))) where A is the lower asymptote, B is the upper asymptote, C is the IC50 value, and D is the slope.

The next test has as its system TE11 cell line. As to the kind of experiment: PRMT5 Biomarker Assay (symmetrical dimethylation of arginine, Histone H4 Arginine 3). Format: cell-based. The note with it: Homo sapiens, TE-11; TE11 cells, 72 hours incubation, Di-Methyl Histone H4 Arginine 3 level. As to the method:
Compounds of the invention may be tested for potency to inhibit symmetrical dimethylation of arginine in the following assay:
The cell line TE11 was seeded at a density of 6,000 cells per well in 96 well optical quality tissue culture plates in DME medium and 10% foetal bovine serum, and allowed to adhere for 5 hours under standard culture conditions (37 degree Celsius, 5% CO2). Compound dilutions prepared in DMSO were added to the medium, with negative control wells reserved for treatment with DMSO only and maximum inhibition controls receiving a potent PRMT5 inhibitor compound at 1 μM concentration. After incubation for 72 hours, the cells were fixed with 3.7% formaldehyde in PBS for 30 minutes at room temperature, washed with phosphate buffer saline and blocked with Odyssey blocking buffer (LI-COR, Lincoln, Nebr.). Rabbit anti-Di-Methyl Histone H4 Arginine 3 specific antibody (Epigentek) in Odyssey blocking buffer was added and incubated for 14 hours at 4 degree Celsius. After washing, anti-rabbit secondary antibody labelled with Alexa647 dye (LifeTechnologies) and Hoechst 33342 (1 μg/mL, SigmaAldrich) were added for 1 hour incubation. Plates were washed and read on a PerkinElmer Envision 2103 in fluorescence intensity scanning mode (24 scans across the well area). The plates were imaged on a PerkinElmer Phenix high content imaging platform. Using a Columbus image analysis pipeline, individual nuclei were located by Hoechst 33342 stain and the methylation level was calculated from the Alexa647-related intensity in the same area. IC50 values were obtained from the mean Alexa647-related intensity per cell by calculating percent inhibition (% I) for each well relative to controls on the same plate (% I=(I−CN)/(CP−CN) where CN/CP are the averages of the negative/maximum inhibition controls, respectively), then fitting the % I data vs. compound concentration [I] to % I=(A+((B−A)/(1+((C/[I])^D)))) where A is the lower asymptote, B is the upper asymptote, C is the IC50 value, and D is the slope.

pIC50: −log10 of the molar value. Where a name gives a salt, the structure may show the parent alone.

Sequence of Full-length PRMT5 enzyme co-expressed with His6-MEP50 (O14744 whole entry): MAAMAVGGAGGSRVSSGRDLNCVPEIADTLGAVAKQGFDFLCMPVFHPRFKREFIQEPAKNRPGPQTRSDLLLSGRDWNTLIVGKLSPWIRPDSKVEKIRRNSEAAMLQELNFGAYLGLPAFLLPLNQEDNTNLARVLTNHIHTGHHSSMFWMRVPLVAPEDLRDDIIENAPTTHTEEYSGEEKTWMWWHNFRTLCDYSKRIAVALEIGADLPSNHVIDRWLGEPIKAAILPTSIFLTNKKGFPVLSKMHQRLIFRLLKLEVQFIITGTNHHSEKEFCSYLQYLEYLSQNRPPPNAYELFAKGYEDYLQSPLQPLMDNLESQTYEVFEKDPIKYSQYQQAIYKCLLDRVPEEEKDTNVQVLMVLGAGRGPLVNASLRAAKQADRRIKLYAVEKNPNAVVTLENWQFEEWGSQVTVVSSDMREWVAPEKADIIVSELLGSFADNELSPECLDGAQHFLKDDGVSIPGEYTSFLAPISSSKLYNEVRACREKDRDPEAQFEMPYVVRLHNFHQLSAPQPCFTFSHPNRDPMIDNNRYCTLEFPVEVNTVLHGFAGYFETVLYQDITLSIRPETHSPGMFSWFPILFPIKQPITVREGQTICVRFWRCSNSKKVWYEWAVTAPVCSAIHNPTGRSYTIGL
Sequence of Full-length PRMT5 enzyme co-expressed with His6-MEP50 (Q9BQA1 whole entry partner): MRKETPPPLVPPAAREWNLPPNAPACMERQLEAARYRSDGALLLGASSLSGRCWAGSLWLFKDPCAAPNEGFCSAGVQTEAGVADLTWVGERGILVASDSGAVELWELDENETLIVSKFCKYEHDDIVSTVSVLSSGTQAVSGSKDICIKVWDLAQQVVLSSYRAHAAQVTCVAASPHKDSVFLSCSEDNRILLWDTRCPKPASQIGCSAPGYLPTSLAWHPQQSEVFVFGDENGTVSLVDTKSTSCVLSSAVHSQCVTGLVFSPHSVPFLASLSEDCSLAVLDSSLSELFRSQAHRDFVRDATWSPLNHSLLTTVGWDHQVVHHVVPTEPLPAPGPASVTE

For `CCOc1cc(C(=O)N2C3COCC2CC(O)C3)ccc1C(=O)NC[C@@H](O)[C@@H]1Cc2ccccc2CN1` (stereo partly drawn) [Compound 1, 2-Ethoxy-N—((R)-2-hydroxy-2-((S)-1,2,3,4-tetrahydroisoquinolin-3-yl)ethyl)-4-(7-hydroxy-3-oxa-9-azabicyclo[3.3.1]nonane-9-carbonyl)benzamide Hydrochloride], the pIC50 (usually −log10 of the IC50, conventionally taken in molar units) is 7.72 in test [1] and 8.41 in the test on TE11 cell line.
The like results for `CCOc1cc(C(=O)N2C3COCC2CC(O)C3)ccc1C(=O)NC[C@@H](O)CNC1Cc2ccccc2C1` (stereo partly drawn) [Compound 2, N—((S)-3-((2,3-Dihydro-1H-inden-2-yl)amino)-2-hydroxypropyl)-2-ethoxy-4-(7-hydroxy-3-oxa-9-azabicyclo[3.3.1]nonane-9-carbonyl)benzamide] were, in that order, 7.72 and 9.22.
Turning to `CCOc1cc(C(=O)N2C3CCC2COC3)ccc1C(=O)N(C)C[C@@H](O)[C@@H]1Cc2ccccc2CN1` [Compound 3, 4-(3-Oxa-8-azabicyclo[3.2.1]octane-8-carbonyl)-2-ethoxy-N—((R)-2-hydroxy-2-((S)-1,2,3,4-tetrahydroisoquinolin-3-yl)ethyl)-N-methylbenzamide Hydrochloride], the figures for the pIC50 (in test [1]; in the test with TE11 cell line) were 7.44 and 7.93, respectively.

Values taken from US10519167B2, “3-oxa-8-azabicyclo[3.2.1]octane derivatives and their use in the treatment of cancer and hemoglobinopathies” (CTXT PTY LTD, priority 2016, dated 2019).
